Assays:
[1] = target: T1, Human P2Y12 receptor (Homo sapiens, UniProt Q9H244); experiment: Human P2Y12 receptor cell membrane binding assay with [3H] 2-Mes-ADP; details: 1 nM [3H] 2-Mes-ADP, membranes of HEK cells expressing P2Y12 receptor; read-out: Binding activity (IC50)
T1 construct: expressed in transfected cells; host or cells: HEK cells
Method in brief: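 Membranes from HEK cells expressing human P2Y12 were incubated with compound and 1 nM [3H]2-MeS-ADP for 1 h at room temperature. Bound radioactivity was collected by GF/B filtration.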

[2] = test system: Human platelet aggregation caused by ADP; experiment: Inhibition of ADP-induced platelet aggregation (Mimic-human PRP); format: cell-based; details: 20 μM ADP, human platelet concentrate diluted with PPP, absorption at 595 nm
Method in brief: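 Human PRP diluted with PPP to 3–4×10^8 platelets/mL was preincubated 20 min at room temperature with compound (0.01–30 μM, DMSO), then stimulated with 20 μM ADP. Aggregation read as A595 increase at 3 min versus 0 and 20 μM ADP controls; Ki from sigmoidal non-linear regression.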

T1 sequence (Q9H244 whole entry): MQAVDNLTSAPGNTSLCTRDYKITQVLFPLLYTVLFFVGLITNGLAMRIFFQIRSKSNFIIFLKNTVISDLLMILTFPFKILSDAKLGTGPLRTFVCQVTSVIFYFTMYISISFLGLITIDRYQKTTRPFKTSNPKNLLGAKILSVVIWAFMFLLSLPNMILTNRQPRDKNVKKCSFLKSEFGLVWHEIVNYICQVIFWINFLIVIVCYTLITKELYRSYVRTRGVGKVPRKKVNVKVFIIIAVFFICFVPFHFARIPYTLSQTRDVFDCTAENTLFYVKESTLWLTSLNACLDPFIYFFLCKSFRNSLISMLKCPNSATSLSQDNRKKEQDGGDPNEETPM

`CC(C)c1cc2c(N3CCn4c(nnc4C(F)(F)F)C3)nc(N3CCNC(=O)C3)nc2s1` [Example 2-12, 4-[6-isopropyl-4-(3-trifluoromethyl-5,6-dihydro-8H-[1,2,4]triazolo[4,3-a]pyrazin-7-yl)-thieno[2,3-d]pyrimidin-2-yl]-piperazin-2-one] showed an IC50 [1] of 460 nM and a Ki [2] of 2900 nM.
`CCCCc1cc2c(N3CCn4c(nnc4C(F)(F)F)C3)nc(N3CCNC(=O)C3)nc2s1` [Example 2-14, 4-[6-Butyl-4-(3-trifluoromethyl-5,6-dihydro-8H-[1,2,4]triazolo[4,3-a]pyrazin-7-yl)-thieno[2,3-d]pyrimidin-2-yl]-piperazin-2-one] was tested, and the IC50 [1] was 100 nM and the Ki [2] was 329 nM.
`CCCCc1cc2c(N3CCn4c(nnc4C(F)(F)F)C3)nc(NCCO)nc2s1` [Example 2-15, 2-[6-Butyl-4-(3-trifluoromethyl-5,6-dihydro-8H-[1,2,4]triazolo[4,3-a]pyrazin-7-yl)-thieno[2,3-d]pyrimidin-2-ylamino]-ethanol] gave an IC50 [1] of 240 nM and a Ki [2] of 223 nM.
`CCCCc1cc2c(N3CCn4c(nnc4C(F)(F)F)C3)nc(N3CCN(C)CC3)nc2s1` [Example 2-16, 7-[6-Butyl-2-(4-methyl-piperazin-1-yl)-thieno[2,3-d]pyrimidin-4-yl]-3-trifluoromethyl-5,6,7,8-tetrahydro-[1,2,4]triazolo[4,3-a]pyrazine] gave an IC50 [1] of 188 nM and a Ki [2] of 817 nM.
`CC(C)Cc1cc2c(N3CCn4c(nnc4C(F)(F)F)C3)nc(N3CCNC(=O)C3)nc2s1` [Example 2-17, 4-[6-Isobutyl-4-(3-trifluoromethyl-5,6-dihydro-8H-[1,2,4]triazolo[4,3-a]pyrazin-7-yl)-thieno[2,3-d]pyrimidin-2-yl]-piperazin-2-one] was tested, and the IC50 [1] was 367 nM and the Ki [2] was 440 nM.
For `CC(C)Cc1cc2c(N3CCn4c(nnc4C(F)(F)F)C3)nc(N3CC[C@@H](O)C3)nc2s1` [Example 2-18, (R)-1-[6-Isobutyl-4-(3-trifluoromethyl-5,6-dihydro-8H-[1,2,4]triazolo[4,3-a]pyrazin-7-yl)-thieno[2,3-d]pyrimidin-2-yl]-pyrrolidin-3-ol], the IC50 [1] was 330 nM and the Ki [2] was 310 nM.
Work on `O=C1CN(c2nc(N3CCn4c(nnc4C(F)(F)F)C3)c3cc(CCC(F)(F)F)sc3n2)CCN1` [Example 2-19, 4-[4-(3-Trifluoromethyl-5,6-dihydro-8H-[1,2,4]triazolo[4,3-a]pyrazin-7-yl)-6-(3,3,3-trifluoro-propyl)-thieno[2,3-d]pyrimidin-2-yl]-piperazin-2-one] yielded an IC50 [1] of 362 nM and a Ki [2] of 550 nM.
Work on `O[C@@H]1CCN(c2nc(N3CCn4c(nnc4C(F)(F)F)C3)c3cc(CCC(F)(F)F)sc3n2)C1` [Example 2-20, (R)-1-[4-(3-Trifluoromethyl-5,6-dihydro-8H-[1,2,4]triazolo[4,3-a]pyrazin-7-yl)-6-(3,3,3-trifluoro-propyl)-thieno[2,3-d]pyrimidin-2-yl]-pyrrolidin-3-ol] yielded an IC50 [1] of 260 nM and a Ki [2] of 40 nM.
Work on `CCCc1cc2c(N3CCn4c(nnc4C(F)(F)F)C3)nc(OCC(O)CO)nc2s1` (stereo not drawn) [Example 3-1, 3-[6-Propyl-4-(3-trifluoromethyl-5,6-dihydro-8H-[1,2,4]triazolo[4,3-a]pyrazin-7-yl)-thieno[2,3-d]pyrimidin-2-yloxy]-propane-1,2-diol] yielded an IC50 [1] of 140 nM and a Ki [2] of 31 nM.
Work on `CCCc1cc2c(N3CCn4c(nnc4C(F)(F)F)C3)nc(OCC(CO)CO)nc2s1` [Example 3-2, 2-[6-Propyl-4-(3-trifluoromethyl-5,6-dihydro-8H-[1,2,4]triazolo[4,3-a]pyrazin-7-yl)-thieno[2,3-d]pyrimidin-2-yloxymethyl]-propane-1,3-diol] yielded an IC50 [1] of 200 nM and a Ki [2] of 17 nM.
`CCCc1cc2c(N3CCn4c(nnc4C(F)(F)F)C3)nc(OCCO)nc2s1` [Example 3-3, 2-[6-Propyl-4-(3-trifluoromethyl-5,6-dihydro-8H-[1,2,4]triazolo[4,3-a]pyrazin-7-yl)-thieno[2,3-d]pyrimidin-2-yloxy]-ethanol] was tested, and the IC50 [1] was 113 nM and the Ki [2] was 30 nM.
For `CCCc1cc2c(N3CCn4c(nnc4C(F)(F)F)C3)nc(OCCOC)nc2s1` [Example 3-4, 7-[2-(2-Methoxy-ethoxy)-6-propyl-thieno[2,3-d]pyrimidin-4-yl]-3-trifluoromethyl-5,6,7,8-tetrahydro-[1,2,4]triazolo[4,3-a]pyrazine], the IC50 [1] was 170 nM and the Ki [2] was 230 nM.
`CCCc1cc2c(N3CCn4c(nnc4C(F)(F)F)C3)nc(OC3CCOC3)nc2s1` (stereo not drawn) [Example 3-5, 7-[6-Propyl-2-(tetrahydro-furan-3-yloxy)-thieno[2,3-d]pyrimidin-4-yl]-3-trifluoromethyl-5,6,7,8-tetrahydro-[1,2,4]triazolo[4,3-a]pyrazine] gave an IC50 [1] of 91 nM and a Ki [2] of 26 nM.
`CCCc1cc2c(N3CCn4c(nnc4C(F)(F)F)C3)nc(OCC3CCCO3)nc2s1` (stereo not drawn) [Example 3-6, 7-[6-Propyl-2-(tetrahydro-furan-2-ylmethoxy)-thieno[2,3-d]pyrimidin-4-yl]-3-trifluoromethyl-5,6,7,8-tetrahydro-[1,2,4]triazolo[4,3-a]pyrazine] was tested, and the IC50 [1] was 690 nM and the Ki [2] was 140 nM.
In the case of `CCCc1cc2c(N3CCn4c(nnc4C(F)(F)F)C3)nc(OC3CCN(C)C3)nc2s1` (stereo not drawn) [Example 3-7, 7-[2-(1-Methyl-pyrrolidin-3-yloxy)-6-propyl-thieno[2,3-d]pyrimidin-4-yl]-3-trifluoromethyl-5,6,7,8-tetrahydro-[1,2,4]triazolo[4,3-a]pyrazine], the IC50 [1] is reported as 540 nM and the Ki [2] is reported as 300 nM.
In the case of `CCCc1cc2c(N3CCn4c(nnc4C(F)(F)F)C3)nc(OCC(=O)OC)nc2s1` [Example 3-8, [6-Propyl-4-(3-trifluoromethyl-5,6-dihydro-8H-[1,2,4]triazolo[4,3-a]pyrazin-7-yl)-thieno[2,3-d]pyrimidin-2-yloxy]-acetic acid methyl ester], the IC50 [1] is reported as 331 nM and the Ki [2] is reported as 610 nM.
`CCCc1cc2c(N3CCn4c(nnc4C(F)(F)F)C3)nc(OCC(=O)O)nc2s1` [Example 3-9, [6-Propyl-4-(3-trifluoromethyl-5,6-dihydro-8H-[1,2,4]triazolo[4,3-a]pyrazin-7-yl)-thieno[2,3-d]pyrimidin-2-yloxy]-acetic acid] showed an IC50 [1] of 826 nM and a Ki [2] of 3700 nM.
Work on `CCCc1cc2c(N3CCn4c(nnc4C(F)(F)F)C3)nc(OCCCO)nc2s1` [Example 3-10, 3-[6-Propyl-4-(3-trifluoromethyl-5,6-dihydro-8H-[1,2,4]triazolo[4,3-a]pyrazin-7-yl)-thieno[2,3-d]pyrimidin-2-yloxy]-propan-1-ol] yielded an IC50 [1] of 140 nM and a Ki [2] of 64 nM.
With `CCCc1cc2c(N3CCn4c(nnc4C(F)(F)F)C3)nc(OCCC(=O)O)nc2s1` [Example 3-11, 3-[6-Propyl-4-(3-trifluoromethyl-5,6-dihydro-8H-[1,2,4]triazolo[4,3-a]pyrazin-7-yl)-thieno[2,3-d]pyrimidin-2-yloxy]-propionic acid] the IC50 [1] was 72 nM and the Ki [2] was 70 nM.
`CCCc1cc2c(N3CCn4c(nnc4C(F)(F)F)C3)nc(OCCC(=O)OC(C)C)nc2s1` [Example 3-12, 3-[6-Propyl-4-(3-trifluoromethyl-5,6-dihydro-8H-[1,2,4]triazolo[4,3-a]pyrazin-7-yl)-thieno[2,3-d]pyrimidin-2-yloxy]-propionic acid isopropyl ester] showed an IC50 [1] of 160 nM and a Ki [2] of 50 nM.
With `CCCc1cc2c(N3CCn4c(nnc4C(F)(F)F)C3)nc(OCCC(=O)OCOC(=O)C(C)(C)C)nc2s1` [Example 3-13, 2,2-Dimethyl-propionic Acid 3-[6-propyl-4-(3-trifluoromethyl-5,6-dihydro-8H-[1,2,4]triazolo[4,3-a]pyrazin-7-yl)-thieno[2,3-d]pyrimidin-2-yloxy]-propionyloxymethyl ester] the IC50 [1] was 410 nM and the Ki [2] was 430 nM.
For `CCCc1cc2c(N3CCn4c(nnc4C(F)(F)F)C3)nc(OCCC(OC)OC)nc2s1` [Example 3-14, 7-[2-(3,3-Dimethoxy-propoxy)-6-propyl-thieno[2,3-d]pyrimidin-4-yl]-3-trifluoromethyl-5,6,7,8-tetrahydro-[1,2,4]triazolo[4,3-a]pyrazine], the IC50 [1] was 240 nM and the Ki [2] was 1100 nM.
For `CCCc1cc2c(N3CCn4c(nnc4C(F)(F)F)C3)nc(OC3CCCC3)nc2s1` [Example 3-15, 7-(2-Cyclopentyloxy-6-propyl-thieno[2,3-d]pyrimidin-4-yl)-3-trifluoromethyl-5,6,7,8-tetrahydro-[1,2,4]triazolo[4,3-a]pyrazine], the IC50 [1] was 53 nM and the Ki [2] was 300 nM.
In the case of `CCCc1cc2c(N3CCn4c(nnc4C(F)(F)F)C3)nc(OCc3ccccc3)nc2s1` [Example 3-16, 7-(2-Benzyloxy-6-propyl-thieno[2,3-d]pyrimidin-4-yl)-3-trifluoromethyl-5,6,7,8-tetrahydro-[1,2,4]triazolo[4,3-a]pyrazine], the IC50 [1] is reported as 39 nM and the Ki [2] is reported as 27600 nM.
`CCCCOc1nc(N2CCn3c(nnc3C(F)(F)F)C2)c2cc(CCC)sc2n1` [Example 3-17, 7-(2-Butoxy-6-propyl-thieno[2,3-d]pyrimidin-4-yl)-3-trifluoromethyl-5,6,7,8-tetrahydro-[1,2,4]triazolo[4,3-a]pyrazine] gave an IC50 [1] of 110 nM and a Ki [2] of 3200 nM.
In the case of `CCCc1cc2c(N3CCn4c(nnc4C(F)(F)F)C3)nc(OCc3nc(CC(=O)OCC)co3)nc2s1` [Example 3-18, {2-[6-Propyl-4-(3-trifluoromethyl-5,6-dihydro-8H-[1,2,4]triazolo[4,3-a]pyrazin-7-yl)-thieno[2,3-d]pyrimidin-2-yloxymethyl]-oxazol-4-yl}-acetic acid ethyl ester], the IC50 [1] is reported as 400 nM and the Ki [2] is reported as 4300 nM.
In the case of `CCCc1cc2c(N3CCn4c(nnc4C(F)(F)F)C3)nc(OCc3nc(CC(=O)O)co3)nc2s1` [Example 3-19, {2-[6-Propyl-4-(3-trifluoromethyl-5,6-dihydro-8H-[1,2,4]triazolo[4,3-a]pyrazin-7-yl)-thieno[2,3-d]pyrimidin-2-yloxymethyl]-oxazol-4-yl}-acetic acid], the IC50 [1] is reported as 170 nM and the Ki [2] is reported as greater than 4000 nM.

— patent US20110166121A1 (LG LIFE SCIENCES LTD., priority 2008, published 2011)
